From ChEMBL document CHEMBL3132803 (Medchemcomm, 2013)

Key:
[1] = Cytotoxicity against human […] cells assessed as inhibition of cell proliferation after 3 days by coulter counter analysis; assay type: functional, cell-based; conditions: 72 h
[2] = test system: Raji; assay: Cytotoxicity against human Raji cells assessed as inhibition of cell proliferation after 3 days by coulter counter analysis; assay type: functional, cell-based; conditions: 72 h
[3] = test system: DU-145; assay: Cytotoxicity against human DU145 cells assessed as inhibition of cell proliferation after 24 hrs by MTT assay; assay type: functional, cell-based; conditions: DU-145, 24 h
[4] = test system: Serum; assay: Ratio of AUC in CSF to AUC in serum of Sprague-Dawley rat at 2.5 mg/kg, iv; assay type: ADME, organism-based; parameters: dose 2.5 mg/kg, route intravenous
[5] = AUC in Sprague-Dawley rat serum at 2.5 mg/kg, iv administered as single dose by CE-UV analysis; assay type: ADME, organism-based; parameters: dose 2.5 mg/kg, route intravenous
[6] = AUC in Sprague-Dawley rat CSF at 2.5 mg/kg, iv administered as single dose by CE-UV analysis; assay type: ADME, organism-based; parameters: dose 2.5 mg/kg, route intravenous; conditions: cerebrospinal fluid

SMILES	IC50 [1]	IC50 [2]	IC50 [3]	Ratio AUC [4]	AUC [5]	AUC [6]
CNC(=O)N[C@H]1[C@@H]2NC(=O)c3ccc(Br)n3[C@@H]2C[C@H]1O	> 10000 nM	> 10000 nM	–	–	–	–
CN1C(=O)N[C@@H]2[C@H]3NC(=O)c4ccc(Br)n4[C@H]3C[C@@]21O	–	–	> 10000 nM	–	–	–
O=C1N[C@H]2[C@@H]3NC(=O)c4cccn4[C@@H]3C[C@H]2O1	> 10000 nM	> 10000 nM	–	–	–	–
CNC(=O)N[C@H]1[C@@H]2NC(=O)c3cccn3[C@@H]2C[C@H]1O	> 10000 nM	> 10000 nM	–	–	–	–
CN1C(=O)N[C@H]2[C@@H]3NC(=O)c4cccn4[C@@H]3C[C@]21O	3000 nM	3160 nM	> 10000 nM	–	–	–
CCN1C(=O)N[C@H]2[C@@H]3NC(=O)c4cccn4[C@@H]3C[C@]21O	–	–	> 10000 nM	–	–	–
CN1C(=O)N[C@H]2[C@@H]3NC(=O)c4ccc(Cl)n4[C@@H]3C[C@]21O	80 nM	180 nM	1200 nM	16%	22.8 µM·h	3.75 µM·h
CCN1C(=O)N[C@H]2[C@@H]3NC(=O)c4ccc(Cl)n4[C@@H]3C[C@]21O	280 nM	300 nM	2600 nM	27%	37.5 µM·h	10.1 µM·h
CCN1C(=O)N[C@H]2[C@@H]3NC(=O)c4cc(Cl)c(Cl)n4[C@@H]3C[C@]21O	440 nM	620 nM	1400 nM	30.7%	24.8 µM·h	7.6 µM·h
CCN1C(=O)N[C@H]2[C@@H]3NC(=O)c4ccc(Br)n4[C@@H]3C[C@]21O	–	–	> 10000 nM	–	–	–
COc1ccc(CN2C(=O)N[C@H]3[C@@H]4NC(=O)c5ccc(Br)n5[C@@H]4C[C@]32O)cc1	–	–	> 10000 nM	–	–	–
CN1C(=O)N[C@H]2[C@@H]3NC(=O)c4ccc(C5CC5)n4[C@@H]3C[C@]21O	1000 nM	400 nM	5000 nM	–	–	–
CN1C(=O)N[C@H]2[C@@H]3NC(=O)c4ccc(-c5ccccc5)n4[C@@H]3C[C@]21O	1500 nM	3800 nM	6000 nM	–	–	–
CN1C(=O)N[C@H]2[C@@H]3NC(=O)c4ccc(-c5ccc(N)cc5)n4[C@@H]3C[C@]21O	–	–	> 10000 nM	–	–	–
CN1C(=O)N[C@H]2[C@@H]3NC(=O)c4ccc(Br)n4[C@@H]3C[C@]21O [AGELASTATIN A]	2800 nM	140 nM	2300 nM	–	53.2 µM·h	3.41 µM·h
